The source of these data is patent US4020164A, “Benzomorphan derivatives” (priority 1972, dated 1977).

Counter-ions that a name gives are not always drawn.

In general, ED50 refers to the dose at which the effect has come halfway, by size or by number of responders.

The test system of one assay is apomorphine. The assay can be described thus: Apomorphine antagonism test. It is filed as in vivo, mice. The note with it: for apomorphine-antagonistic activity compared with cyclazocine and pentazocine: vs. cyclazocine and pentazocine; for apomorphine-antagonistic activity compared with haloperidol: vs. haloperidol; for ED50, Apomorphine Antagonism: mouse, in vivo, 1.56 mg/kg. How it is done:
(§1) The pharmacological investigations were conducted on mice weighing 20-22 g. or on rats weighing 80-110 g. Unless indicated otherwise, the test substances were administered in the form of the hydrochloride acid addition salt thereof in an isotonic NaCl solution, and the animals were examined 30 minutes after subcutaneous (sc) application. The injection volume was respectively 5 ml./kg. of body weight. 10-40 controls animals were used in each experiment. The test and control solutions were administered in accordance with a randomized injection schedule. Seven logarithmically spaced dosages were employed of each test substance. The effective dose (ED) was calculated by probit analysis (Finney, D. J., "Probit Analysis," Cambridge University Press, 2nd Edition, Cambridge 1957). ED50 figures were rounded.
The criterion for antagonistic effect was the absence of stereotyped movements within an observation period of one minute.

In the next assay the test system is electroshock. The assay can be described thus: Maximal electroshock test. It is filed as in vivo. Particulars: mice; for ED50, Maximal Electroshock Test: s.c. How it is done: 10-40 controls animals were used in each experiment. […] ED50 figures were rounded.
In the maximum electroshock test, the test substances were administered to dose groups of 6 mice. Sinusoidal pulses of 16 milliamperes/50 c.p.s. [Hertz] and 0.2 second duration were delivered transcorneally via silver electrodes. The shock intensity used elicits nonlethal tonic-clonic convulsions in control animals (p <0.01, N = 192). The criterion for protective effect was the absence of the tonic extensor cramp of the hind limbs after shock application (modified test according to Swinyard et al., J. Pharmacol. Exp. Ther. 106, 319, 1952).
(In the maximal electroshock model the usual endpoint is tonic extension of the hind limbs.)

Assay [1] deals with phenylquinone. Nature of the assay: Writhing test, acute (phenylquinone writhing, analgesic activity). The assay is classed as in vivo. The note with it: mice; for ED50, writhing test, acute p.o., 10 min. p.i. / ED50, writhing test, acute p.o., 30 min. p.i. / ED50, writhing test, acute s.c., 30 min. p.i. / ED50, writhing test, acute s.c., 10 min. p.i.: phenylquinone 2 mg/kg i.p., hydrochloride; for ED50, writhing test, acute p.o., 10 min. p.i. / ED50, writhing test, acute p.o., 30 min. p.i. / ED50, writhing test, acute s.c., 10 min. p.i.: ED50 rounded; for ED50, writhing test, acute s.c., 30 min. p.i.: * = significant difference between acute and subchronic ED50 (p < 0.001); for potency in writhing test compared with cyclazocine: vs. cyclazocine; for potency in writhing test compared with morphine: vs. morphine; for potency in writhing test compared with pentazocine: vs. pentazocine. How it is done:
as §1
(§2) In the acute test, the test compounds were administered perorally (p.o.) or subcutaneously (s.c.) to mice. Eight mice were used per dose. Seven minutes prior to the testing, the animals received 2 mg./kg. of phenylquinone intraperitoneally. […] The criterion for protective effect was absence of writhes during the eighth minute after phenylquinone administration.
On the technique in general: Writhing tests count abdominal constrictions after an irritant is injected.

The subject of assay [2] is morphine. Nature of the assay: Precipitated Withdrawal Jumping Test (morphine antagonism in morphine-dependent mice). The assay is classed as in vivo. How it is done:
as §1
The test compound was given to dose groups of 8 animals. The antagonist-precipitated withdrawal jumping frequencies were recorded during three 5-minute observation intervals uniformly distributed over 30 minutes after administration of the test compound. […] The criterion for a precipitating effect is a mean jumping frequency of >1/minute.

Assay [3] relates to morphine. On the set-up: species or system mice. Particulars: mouse, in vivo; for ED50, Morphine Antagonism-Tail-Flick Test, Mice: 12.5 mg/kg.
In assay [4] the test system is morphine. Nature of the assay: animal or person. It is filed as in vivo, rats. The note with it: rat, in vivo; for ED50, Morphine Antagonism-Tail-Flick Test, Rats: sc, 6.25 mg/kg. On the technique in general: Thermal pain tests record how soon the animal reacts.
In assay [5] the test system is phenylquinone. Particulars: mice; s.c.; 30 min p.i.; 25 hours after last injection of 64-hour pretreatment, total 550 mg/kg. How it is done:
as §1, §2
In the subchronic test, the same test was performed 25 hours after the last injection of a 64-hour pretreatment period, with the test compound being administered subcutaneously. During the pretreatment period, the subjects received a total of 550 mg/kg. of the test compound, with the test compound being injected over a period of 22 hours in 4 increasing dosages in salt form, and over an additional 42 hours in 2 identical dosages in free base form in sesame oil.

Where [6] appears, read: 16 mA/50 c.p.s., 0.2 second, transcorneal, absence of tonic extensor cramp of hind limbs, 30 min.
[7] abbreviates: morphine-dependent mice, criterion mean jumping frequency >1/minute.

Consider `CCC12CCN(CC(C)(C)O)C(Cc3ccc(O)cc31)C2C` (single isomer, unassigned; (-)) [Compound A, (-)-5-ethyl-2'-hydroxy-2-(2-hydroxy-2-methylpropyl)-9-methyl-6,7-benzomorphan], for which, in the assay with apomorphine (mice), the “apomorphine-antagonistic activity compared with cyclazocine and pentazocine” value is “markedly stronger activity than cyclazocine and pentazocine”; the “apomorphine-antagonistic activity compared with haloperidol” value was “only slightly weaker effectiveness than haloperidol”. Besides, in the assay on apomorphine (sc), the “ED50, Apomorphine Antagonism” value was 0.3 mg/kg. For the same compound, the “muscle-relaxant and anti-convulsant effect in maximum electroshock test (in words)” value with electroshock is “strong muscle-relaxant and anti-convulsant effect”. In addition, the “ED50, Maximal Electroshock Test” value in the assay with electroshock (setting [6]) came out at 8 mg/kg. In the assay with phenylquinone [1], the “ED50, writhing test, acute p.o., 10 min. p.i.” value (from here on “ED50 … acute p.o., 10 min. p.i.”) amounted to 3 mg/kg; the “ED50, writhing test, acute p.o., 30 min. p.i.” value (“ED50 … acute p.o., 30 min. p.i.” below) came to 7 mg/kg; the “ED50, writhing test, acute s.c., 30 min. p.i.” value (shortened to “ED50 … acute s.c., 30 min. p.i.”) is recorded as 0.2 mg/kg; the “potency in writhing test compared with cyclazocine” value is “at least equipotent with cyclazocine”. For the same compound, in the assay with phenylquinone [1], the “potency in writhing test compared with morphine” value is “more potent than morphine” and the “potency in writhing test compared with pentazocine” value is given as “appreciably more potent than pentazocine”.
In the case of `CC(O)CN1CCC2(C)c3cc(O)ccc3CC1C2C` (single isomer, unassigned; (-)) [Compound D, (-)-2'-hydroxy-2-(2-hydroxypropyl)-5,9-dimethyl-6,7-benzomorphan], in the assay with morphine [2] (morphine-dependent mice), the “precipitated withdrawal effect (in words)” value is given as “considerable activity”. Moreover, the “ED50, Precipitated Withdrawal Jumping Test” value in the assay with morphine [2] (setting [7]) came out at 9 mg/kg. Besides, the “morphine-antagonistic activity, tail-flick test (in words), mice” value (“morphine-antagonistic activity … mice” for short) in the assay on morphine [3] is “marked activity”. The “ED50, Morphine Antagonism-Tail-Flick Test, Mice” value (“ED50 … Mice” below) in the assay on morphine [3] (sc) turned out to be 1 mg/kg. For the same compound, in the assay on morphine [4], the “morphine-antagonistic activity, tail-flick test (in words), rats” value (shortened to “morphine-antagonistic activity … rats”) was “marked activity” and the “ED50, Morphine Antagonism-Tail-Flick Test, Rats” value (“ED50 … Rats” for short) was 2 mg/kg.
On to `CN1CC[C@]23c4c5ccc(O)c4O[C@H]2[C@@H](O)C=C[C@H]3[C@H]1C5.O=S(=O)(O)O` [morphine sulfate, reference compound], for which the “morphine dose corresponding to the ED80, reaction times exceeding 95% value of controls” value in the assay with morphine [3] (sc) turned out to be 12.5 mg/kg. In the assay with morphine [4], the “morphine dose corresponding to the ED99, reaction times exceeding 95% value of controls” value amounted to 6.25 mg/kg.
In the case of `CCC12CCN(CC(C)O)C(Cc3ccc(O)cc31)C2C` (single isomer, unassigned; (-)) [Compound C, (-)-5-ethyl-2'-hydroxy-2-(2-hydroxypropyl)-9-methyl-6,7-benzomorphan], in the assay with morphine [2] (morphine-dependent mice), the “precipitated withdrawal effect (in words)” value is “considerable activity”. Further, in the assay with morphine [2] (setting [7]), the “ED50, Precipitated Withdrawal Jumping Test” value stood at 7 mg/kg. In the assay on morphine [3], the “morphine-antagonistic activity … mice” value was “marked activity”. The “ED50 … Mice” value in the assay with morphine [3] (sc) worked out at 1 mg/kg. In addition, in the assay with morphine [4], the “morphine-antagonistic activity … rats” value is “marked activity” and the “ED50 … Rats” value worked out at 2 mg/kg.
As to `O=C1C=CC(=O)C(c2ccccc2)=C1` [phenylquinone, reference compound], in the assay with phenylquinone [1] (Mus musculus, ip, 10 min, ED95, intraperitoneal, maximum action within 10 minutes p.i., read-out: phenylquinone dosage corresponding to the ED95 for the evocation of writhing), the ED95 came to 2 mg/kg.
`CNC1=Nc2ccc(Cl)cc2C(c2ccccc2)=[N+]([O-])C1` [Chlordiazepoxide, reference compound] gave a 50% effective dose (ED50) in the assay on electroshock (Mus musculus, sc, 0.5 h, 16 mA/50 c.p.s., 0.2 second, transcorneal, absence of tonic extensor cramp of hind limbs, 30 min) of 12 mg/kg.
For the compound `CN1CCc2cccc3c2[C@H]1Cc1ccc(O)c(O)c1-3` [apomorphine hydrochloride, reference compound], the ED95 in the assay on apomorphine (Mus musculus, sc, mice, ED95, s.c., read-out: apomorphine dose corresponding to an ED95 for the production of stereotyped behavior in the head region) was determined as 1.56 mg/kg.
As for `C=CCN1CC[C@]23c4c5ccc(O)c4O[C@H]2C(=O)CC[C@@]3(O)[C@H]1C5` [Naloxone, reference compound], in the assay with morphine [2] (Mus musculus, sc, morphine-dependent mice, criterion mean jumping frequency >1/minute), the ED50 came to 0.2 mg/kg. Moreover, the “jumping frequency, solvent controls challenged with naloxone” value with morphine [2] (mice, solvent controls, naloxone 0.39 mg/kg, N = 80) turned out to be 0.13 ± 0.06 min⁻¹.
As for `O=C(CCCN1CCC(O)(c2ccc(Cl)cc2)CC1)c1ccc(F)cc1` [Haloperidol, reference compound], the ED50 in the assay on apomorphine (Mus musculus, sc, read-out: ED50, Apomorphine Antagonism) stood at 0.1 mg/kg.
As for `CC1C2Cc3ccc(O)cc3C1(C)CCN2CC(C)(C)O` (single isomer, unassigned; (-)) [Compound B, (-)-2'-hydroxy-2-(2-hydroxy-2-methylpropyl)-5,9-dimethyl-6,7-benzomorphan], in the assay on morphine [2] (morphine-dependent mice), the “precipitated withdrawal effect (in words)” value is listed as “inactivity”; the “sedative and muscle-relaxant effect (explaining inactivity in jumping test)” value was “simultaneous sedative and muscle-relaxant effect”. Besides, the “ED50, Precipitated Withdrawal Jumping Test (inactive, footnote 1)” value in the assay on morphine [2] (morphine-dependent mice, tested at 0.1 - 3.13 mg/kg) is “Inactive”. Further, in the assay with apomorphine (mice), the “apomorphine-antagonistic activity compared with cyclazocine and pentazocine” value was “markedly stronger activity than cyclazocine and pentazocine”; the “apomorphine-antagonistic activity compared with haloperidol” value is reported as “only slightly weaker effectiveness than haloperidol”. Further, the “ED50, Apomorphine Antagonism” value with apomorphine (sc) turned out to be 0.3 mg/kg. Besides, in the assay with phenylquinone [5], the “ED50, writhing test, subchronic s.c., 30 min. p.i.” value was determined as 0.4 mg/kg. For the same compound, the “muscle-relaxant and anti-convulsant effect in maximum electroshock test (in words)” value in the assay on electroshock is “strong muscle-relaxant and anti-convulsant effect”. In the assay with electroshock (setting [6]), the “ED50, Maximal Electroshock Test” value worked out at 4 mg/kg. Further, the “morphine-antagonistic activity … mice” value in the assay on morphine [3] is on record as “marked activity”. Also, the “ED50 … Mice” value with morphine [3] (sc) amounted to 5 mg/kg. Moreover, in the assay with morphine [4], the “morphine-antagonistic activity … rats” value is on record as “marked activity” and the “ED50 … Rats” value turned out to be 3 mg/kg. Moreover, in the assay with phenylquinone [1], the “ED50 … acute p.o., 10 min. p.i.” value is 5 mg/kg; the “ED50 … acute p.o., 30 min. p.i.” value was found to be 10 mg/kg; the “ED50, writhing test, acute s.c., 10 min. p.i.” value came to 0.05 mg/kg; the “ED50 … acute s.c., 30 min. p.i.” value came out at 0.4 mg/kg. In the assay with phenylquinone [1], the “potency in writhing test compared with cyclazocine” value is “at least equipotent with cyclazocine”, the “potency in writhing test compared with morphine” value is recorded as “more potent than morphine” and the “potency in writhing test compared with pentazocine” value is recorded as “appreciably more potent than pentazocine”.
As to `CN1CC[C@]23c4c5ccc(O)c4O[C@H]2[C@@H](O)C=C[C@H]3[C@H]1C5` [Morphine, reference compound], the “ED50, writhing test, subchronic s.c., 30 min. p.i.” value in the assay with phenylquinone [5] is 3 mg/kg. In the assay with phenylquinone [1], the “ED50 … acute p.o., 10 min. p.i.” value is reported as 7 mg/kg; the “ED50 … acute p.o., 30 min. p.i.” value came to 3 mg/kg; the “ED50, writhing test, acute s.c., 10 min. p.i.” value is 0.3 mg/kg; the “ED50 … acute s.c., 30 min. p.i.” value was 0.5 mg/kg.
